Reference: article PMC6095626, “Screening of the Pathogen Box for inhibitors with dual efficacy against Giardia lamblia and Cryptosporidium parvum” (PLoS Neglected Tropical Diseases, 2018)
pEC50: −log10 of the molar value.

Key:
[1] = system: C. parvum (UGA1 Nluc expressing strain in HCT-8 cells); assay: microbe, parasite or virus in culture; format: cell-based, Cryptosporidium parvum; conditions: for Crypto (10 uM) Mean % inhibition: initial Pathogen Box screen, single concentration 10 µM, inhibition compared to DMSO wells
How it was run: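 Parasite growth quantified by NanoLuc luminescence from lysed infected HCT-8 cells, with EC50 fitted from dose curves. Compounds, single-dose 10 μM or serially diluted, were added to confluent 48 h monolayers before infection with bleached UGA1 Nluc oocysts.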

[2] = system: G. lamblia trophozoites (luciferase expressing, WBC6); assay: microbe, parasite or virus in culture; format: cell-based, Giardia lamblia; conditions: for Giardia (16 uM) Mean % inhibition: initial Pathogen Box screen, single concentration 16 µM, inhibition compared to DMSO wells
How it was run: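 Incubation ran 24 h at 37 °C under anaerobic conditions, with compound added in equal volume to trophozoites (WBC6, luciferase-expressing, 250,000 cells/mL). Bioluminescence was the read-out, cross-checked by MOXI Z counts on a duplicate plate; metronidazole served as control (1:2 dilutions from 40 μM).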

Row | Compound | Crypto (10 uM) Mean % inhibition [1] | Giardia (16 uM) Mean % inhibition [2] | also measured
1 | Cc1ccc(C(=O)Nc2ccc(S(=O)(=O)O)c3cc(S(=O)(=O)O)cc(S(=O)(=O)O)c23)cc1NC(=O)c1cccc(NC(=O)Nc2cccc(C(=O)Nc3cc(C(=O)Nc4ccc(S(=O)(=O)O)c5cc(S(=O)(=O)O)cc(S(=O)(=O)O)c45)ccc3C)c2)c1 [MMV637953] | 36% | 10% | 
2 | O=C(Nc1ccc2c(c1)B(O)OC2)c1ccccc1C(F)(F)F [MMV652003] | 94% | 14% | 
3 | Cc1nc(-c2ccccn2)nc(N(C)CCc2ccccc2)c1Cl [MMV658988] | 33% | X* (Mean or standard deviation are negative but not significantly different from the control to be a growth promoter) | 
4 | Cc1nc(-c2ccccn2)nc(NCCc2ccc(S(C)(=O)=O)cc2)c1Cl [MMV658993] | X* (Mean or standard deviation are negative but not significantly different from the control to be a growth promoter) | 11% | 
5 | Cc1nc(-c2ccccn2)nc(N2CCC(Cc3ccccc3)C2)c1Cl (stereo not drawn) [MMV659004] | 66% | 13% | 
6 | FC(F)(F)c1cc(NCCc2ccccc2)nc(-c2ccccn2)n1 [MMV659010] | 15% | 41% | 
7 | Brc1cncc(-c2cc(NCCCn3ccnc3)nc(-c3ccccc3)n2)c1 [MMV661713] | X* (Mean or standard deviation are negative but not significantly different from the control to be a growth promoter) | X* (Mean or standard deviation are negative but not significantly different from the control to be a growth promoter) | 
8 | Clc1cccc(C(c2ccc(CN3CCNCC3)cc2)n2ccnc2)c1 (stereo not drawn) [MMV663250] | 52% | 14% | 
9 | O=C(NCCN1CCCC1)c1cc(NCCCCN2CCC(F)(F)CC2)nc2ccc(Cl)cc12 [MMV667494] | X* (Mean or standard deviation are negative but not significantly different from the control to be a growth promoter) | 82% | 
10 | Nc1ncc(-c2ccc(C(F)(F)F)nc2)cc1-c1ccc(C(F)(F)F)nc1 [MMV668727] | 82% | 0.605% | 
11 | Cc1[nH]c2cc(F)cc(F)c2c(=O)c1-c1ccc(Oc2ccc(OC(F)(F)F)cc2)cc1 [MMV671636] | X* (Mean or standard deviation are negative but not significantly different from the control to be a growth promoter) | 18% | 
12 | COc1ccc(OC)c(NCc2ccc3nc(N)nc(N)c3c2Cl)c1 [MMV675968] |  |  | C. parvum cell growth inhibition in the initial screen ([1]; 10 μM, 48 hours): 88%; pEC50 ([1]; Nluc C. parvum in HCT-8 cells, 48 hours, read-out: C. parvum EC50): 5.68; G. lamblia inhibition of parasite growth in the initial screen ([2]; 16 μM, 24 hours): 90%; G. lamblia EC50 ([2]; luciferase expressing G. lamblia trophozoites, 24 hours, D-luciferin bioluminescence read-out): not potent; pEC50 ([2]; luciferase expressing G. lamblia trophozoites, 24 hours, D-luciferin bioluminescence read-out, read-out: G. lamblia EC50): < 5.00
13 | CC(C)(C)c1ccc(N[C@@H]2CCCC[C@H]2NC(=O)c2ccco2)cc1 [MMV675969] | X* (Mean or standard deviation are negative but not significantly different from the control to be a growth promoter) | 32% | 
14 | COc1ccc(-c2nn(C(C)C)c3ncnc(N)c23)cc1OC [MMV675993] | 89% | X* (Mean or standard deviation are negative but not significantly different from the control to be a growth promoter) | 
15 | Clc1ccc(-n2cc(COc3ccnc4ccccc34)nn2)cc1 [MMV675994] | 94% | 15% | 
16 | COc1ccc(N(CCc2cccc(C)n2)C(C)=O)cc1 [MMV675995] | 26% | 26% | 
17 | COc1ccc(N(CCc2cccc(C)n2)C(=O)C2CCCCC2)cc1 [MMV675996] | X* (Mean or standard deviation are negative but not significantly different from the control to be a growth promoter) | 16% | 
18 | N#CCN(CCCCN1CCN(c2ccc(F)cc2)CC1)C(=O)OCc1ccccc1 [MMV675997] | 56% | 29% | 
19 | COc1ccc(C(=N)N)cc1-c1cn(-c2ccc(C(=N)N)cc2)nn1 [MMV675998] | X* (Mean or standard deviation are negative but not significantly different from the control to be a growth promoter) | 30% | 
20 | O=C(Nc1c(O)cccc1-c1nc2c(C(=O)O)cccc2o1)c1cc(-c2ccccc2)on1 [MMV676008] | X* (Mean or standard deviation are negative but not significantly different from the control to be a growth promoter) | 41% | 

Row | Compound | Crypto (10 uM) Mean % inhibition [1] | Giardia (16 uM) Mean % inhibition [2] | also measured
21 | Clc1ccc(Cl)c(CO[C@H]2CCCC[C@@H]2n2ccnc2)c1 [MMV676048] | 49% | 37% | 
22 | CS(=O)(=O)N1CCC(Cn2nc(Cc3cccc4ccccc34)c3c(N)ncnc32)CC1 [MMV676050] | 79% | 18% | 
23 | COc1cc(NC(=O)Cc2nn(C)c(=O)c3ccccc23)ccc1Cl [MMV676053] | 84% | X* (Mean or standard deviation are negative but not significantly different from the control to be a growth promoter) | 
24 | CC(C)(C)OC(=O)N1CCN(c2cc(-c3ccc(Oc4ccccc4)cc3)n[nH]2)CC1 [MMV676057] | X* (Mean or standard deviation are negative but not significantly different from the control to be a growth promoter) | 52% | 
25 | CCCCc1ccc(NC(=O)Nc2ccc(O[C@H]3CCCC[C@@H]3N(C)c3ccccc3)c(F)c2)cc1 [MMV676063] | 82% | 29% | 
26 | CC(=O)N(CCN(C(=O)c1ccc(F)cc1)c1ccccc1)c1ccccc1 [MMV676064] | 28% | 28% | 
27 | Clc1cccc(CO[C@H]2CCc3ccccc3[C@@H]2n2ccnn2)c1 [MMV676159] | X* (Mean or standard deviation are negative but not significantly different from the control to be a growth promoter) | 30% | 
28 | c1ccc(Oc2ccc(-c3cc(CN4CCOCC4)[nH]n3)cc2)cc1 [MMV676161] | X* (Mean or standard deviation are negative but not significantly different from the control to be a growth promoter) | 33% | 
29 | O=C(Nc1ccccc1-c1nc2c(C(=O)O)cccc2o1)c1ccccc1 [MMV676162] | 48% | 1.55% | 
30 | Nc1ncnc2c1c(Cc1cccc3ccccc13)nn2CC1CCNCC1 [MMV676182] | 59% | 0.413% | 
31 | COC(=O)c1cccc2oc(-c3cccc(OC)c3NC(=O)c3cc(-c4ccccc4)on3)nc12 [MMV676186] | 28% | 19% | 
32 | O=C(c1ccc(F)cc1)N(CCNc1ccccc1)c1ccccc1 [MMV676204] | 55% | 28% | 
33 | CN1CCN(c2nccc3nc(-c4ccc(F)c(F)c4)[nH]c23)CC1 [MMV676260] | 33% | 29% | 
34 | C[C@H](C(N)=O)N1CCCC[C@H]1c1ccc(OCc2cccc(F)c2)cc1 [MMV676269] | 7% | 69% | 
35 | C[C@H](C(N)=O)N1CCCC[C@@H]1c1ccc(OCc2cccc(F)c2)cc1 [MMV676270] | 6.67% | 20% | 
36 | Cc1c[nH]c(CCNC(=O)c2cc(-c3ccc(Cl)cc3)cs2)n1 [MMV676350] | X* (Mean or standard deviation are negative but not significantly different from the control to be a growth promoter) | 17% | 
37 | Nc1ncc(Br)cc1-c1nc2cc(Cl)cnc2[nH]1 [MMV676358] | X* (Mean or standard deviation are negative but not significantly different from the control to be a growth promoter) | 90% | 
38 | Brc1c(-c2ccc3c(c2)OCO3)nc2ncccn12 [MMV676377] | X* (Mean or standard deviation are negative but not significantly different from the control to be a growth promoter) | 40% | 
39 | COc1cccc(OCC(=O)c2ccc(Br)cc2)c1 [MMV676379] | 55% | 80% | 
